Test results reported in patent US20230027361A1, “METTL3 MODULATORS” (priority 2019, published 2023).
Like-named read-outs stand apart in the source and are kept apart here.

Columns and labels:
MOLM-13 cells [1] = assay: MOLM-13 48 Hour Cell Proliferation Assay; assay type: cell-based; details: Homo sapiens
Protocol: MOLM-13 (DSMZ) cells were seeded at 1000 cells per well in a volume of 44 μL in a Falcon 384-well tissue culture treated clear bottom microplate in RPMI 1640 media containing 10% fetal bovine serum using a Multidrop Combi (ThermoFisher Scientific). Cells were incubated overnight at 37° C. in a humidified tissue culture incubator. The Mosquito® HTS Liquid Handler was used to make a compound/media intermediate plate by aliquoting 1 μL of compound from the initial compound dilution plate (concentrations ranging from 10.0 mM to 38.0 nM in 100% DMSO) into a V bottom 384-well screen matrix plate containing 49 μL of media containing the appropriate serum (50-fold dilution, 2% DMSO). The Apricot liquid handling system was used to transfer 6.2 μL compounds from the intermediate plate into the Falcon 384-well tissue culture plate containing 44 μL cells (10-point, 4-fold dilution spanning concentrations 25.0 μM to […], 0.25% DMSO final), and placed in a humidified tissue culture incubator at 37° C. After 48 hours, 25 μL of Cell Titer-Glo reagent (Promega) was added to each well using a Multidrop Combi. The plate was protected from light and placed on an IKA plate shaker for at 300 rpm for 10 minutes at room temperature. The plate was read on an EnVision plate reader (Perkin Elmer) using the Ultra Sensitive Luminescence protocol. Data analysis was performed by normalizing the raw luminescence units to an average of the positive control values for staurosporine (100% cell death) and the negative control values for DMSO (0% cell death). An IC50 was calculated using a 4-parameter logistic nonlinear regression model in GraphPad Prism.

[2] = system: m6A in cellular mRNA of MOLM-13 cells; assay: m6A-mRNA LC-MS/MS Assay (m6A cellular assay); assay type: cell-based; details: Homo sapiens
Protocol: Cells were harvested by centrifugation followed by mRNA extraction using DIRECT Dynabeads mRNA DIRECT kit (Life Technologies). mRNA was quantified on NanoDrop spectrophotometer (Thermo Fisher Scientific) and digested into single nucleosides using Nucleoside Digestion Mix (New England Biolabs). […] Quantification is performed in comparison with the standard curve, obtained from pure nucleoside standards (Selleck Chemicals) running with the same batch of samples. Percentage m^6A in cellular mRNA is calculated as 100*(m^6A/A).

MOLM-13 cells [3] = assay: MOLM-13 96 Hour Cell Proliferation Assay; assay type: cell-based; details: Homo sapiens
Procedure, shortened: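 MOLM-13 cells in RPMI 1640 with 10% FBS were plated overnight at 37 °C, then exposed to compound dilutions at 0.25% DMSO final for 96 h. Viability was read by CellTiter-Glo luminescence, normalised to staurosporine (100% death) and DMSO (0% death) controls, and IC50 was fitted by 4-parameter logistic regression.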

METTL3/METTL14 = METTL3/METTL14 (Homo sapiens, UniProt Q86U44); assay: METTL3-14 Standard Enzyme Assay (METTL3 biochemical assay)
Sequence of METTL3/METTL14 (Q86U44 whole entry, species assumed): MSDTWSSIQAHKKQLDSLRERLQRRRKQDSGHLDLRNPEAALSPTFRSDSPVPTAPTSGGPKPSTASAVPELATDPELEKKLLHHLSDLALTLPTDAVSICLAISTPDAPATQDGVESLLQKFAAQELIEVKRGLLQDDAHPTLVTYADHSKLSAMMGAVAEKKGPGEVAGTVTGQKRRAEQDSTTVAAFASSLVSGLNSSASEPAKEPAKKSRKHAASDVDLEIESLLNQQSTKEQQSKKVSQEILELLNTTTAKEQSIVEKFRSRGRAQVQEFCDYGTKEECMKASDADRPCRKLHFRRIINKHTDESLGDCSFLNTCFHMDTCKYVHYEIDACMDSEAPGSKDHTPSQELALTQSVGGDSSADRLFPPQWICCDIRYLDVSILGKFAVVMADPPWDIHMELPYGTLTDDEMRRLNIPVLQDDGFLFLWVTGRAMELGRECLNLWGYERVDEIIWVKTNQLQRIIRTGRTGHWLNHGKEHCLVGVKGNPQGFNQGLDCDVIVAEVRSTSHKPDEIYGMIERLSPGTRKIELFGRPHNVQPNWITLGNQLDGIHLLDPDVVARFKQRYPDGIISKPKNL
Sequence of METTL3/METTL14 (Q9HCE5 whole entry partner, species assumed): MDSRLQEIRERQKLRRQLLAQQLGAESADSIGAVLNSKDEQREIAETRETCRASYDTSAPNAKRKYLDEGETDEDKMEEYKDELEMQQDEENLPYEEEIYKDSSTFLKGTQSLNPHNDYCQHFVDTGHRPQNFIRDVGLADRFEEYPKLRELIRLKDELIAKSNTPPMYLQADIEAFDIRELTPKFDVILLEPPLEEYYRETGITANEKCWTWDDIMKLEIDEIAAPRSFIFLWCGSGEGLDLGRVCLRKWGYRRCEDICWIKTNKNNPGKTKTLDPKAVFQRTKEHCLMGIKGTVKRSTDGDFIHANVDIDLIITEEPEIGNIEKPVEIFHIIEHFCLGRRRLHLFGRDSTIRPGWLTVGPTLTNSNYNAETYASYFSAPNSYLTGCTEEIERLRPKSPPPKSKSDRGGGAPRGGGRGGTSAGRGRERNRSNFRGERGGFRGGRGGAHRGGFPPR
Procedure, shortened: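 Tritium transfer from ³H-SAM (100 nM) to biotinylated RNA (100 nM) captured on streptavidin flashplates and counted by scintillation. Enzyme complex (2.5 nM) with compound, 5 min preincubation, 30 min reaction at ambient temperature, HEPES pH 7.5 buffer, stopped by excess unlabeled SAM.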

PRMT5-MEP50 = PRMT5-MEP50 (Homo sapiens, UniProt O14744); assay: PRMT5 Assay (PRMT5 biochemical assay)
Sequence of PRMT5-MEP50 (O14744 whole entry): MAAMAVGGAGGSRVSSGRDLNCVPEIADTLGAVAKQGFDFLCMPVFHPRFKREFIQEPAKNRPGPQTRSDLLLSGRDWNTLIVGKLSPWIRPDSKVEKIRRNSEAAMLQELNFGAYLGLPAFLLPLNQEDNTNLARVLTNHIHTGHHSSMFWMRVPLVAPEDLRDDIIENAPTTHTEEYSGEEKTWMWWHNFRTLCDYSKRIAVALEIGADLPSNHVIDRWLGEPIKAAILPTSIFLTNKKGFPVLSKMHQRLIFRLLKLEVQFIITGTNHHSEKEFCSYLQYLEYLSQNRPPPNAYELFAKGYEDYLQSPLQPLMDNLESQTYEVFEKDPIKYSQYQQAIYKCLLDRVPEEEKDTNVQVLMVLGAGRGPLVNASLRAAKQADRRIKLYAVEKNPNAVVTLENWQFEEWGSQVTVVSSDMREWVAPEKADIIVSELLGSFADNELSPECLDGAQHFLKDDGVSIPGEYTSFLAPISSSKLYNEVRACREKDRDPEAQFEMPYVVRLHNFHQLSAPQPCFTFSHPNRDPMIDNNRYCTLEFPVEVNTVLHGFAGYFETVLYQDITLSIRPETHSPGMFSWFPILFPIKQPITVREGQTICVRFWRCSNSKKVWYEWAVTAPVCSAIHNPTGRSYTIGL
Sequence of PRMT5-MEP50 (Q9BQA1 whole entry partner): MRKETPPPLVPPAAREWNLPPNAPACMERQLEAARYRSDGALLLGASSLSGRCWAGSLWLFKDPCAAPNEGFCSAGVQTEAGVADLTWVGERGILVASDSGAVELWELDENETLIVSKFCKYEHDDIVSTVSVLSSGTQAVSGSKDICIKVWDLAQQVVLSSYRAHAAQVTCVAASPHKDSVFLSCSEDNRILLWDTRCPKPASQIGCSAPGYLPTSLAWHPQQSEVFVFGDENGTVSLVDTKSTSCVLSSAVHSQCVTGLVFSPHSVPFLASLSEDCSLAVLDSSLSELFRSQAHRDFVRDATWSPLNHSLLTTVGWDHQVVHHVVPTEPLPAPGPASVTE
Procedure, shortened: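 Radiometric methyltransferase read-out: after 60 min reaction, excess unlabelled SAM (15 μM) stops turnover and biotinylated H4 peptide (100 nM) carrying 3H-methyl from 250 nM 3H-SAM is captured on streptavidin flashplates (2 h, 25° C) for scintillation counting. Enzyme, 2.5 nM PRMT5-MEP50, was preincubated 5 min with compound in pH 8.0 Tris buffer with DTT and Tween.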

METTL1/WDR4 = METTL1/WDR4 (Homo sapiens, UniProt Q9UBP6); assay: METTL1 Assay (METTL1 biochemical assay)
Sequence of METTL1/WDR4 (Q9UBP6 whole entry, species assumed): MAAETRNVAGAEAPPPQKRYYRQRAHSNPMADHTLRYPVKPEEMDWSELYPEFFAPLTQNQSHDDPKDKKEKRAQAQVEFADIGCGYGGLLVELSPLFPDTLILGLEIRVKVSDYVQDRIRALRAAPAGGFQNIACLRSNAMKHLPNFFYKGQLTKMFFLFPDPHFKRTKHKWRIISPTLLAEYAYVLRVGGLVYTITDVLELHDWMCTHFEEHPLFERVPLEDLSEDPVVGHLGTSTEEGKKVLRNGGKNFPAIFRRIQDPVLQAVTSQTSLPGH
Sequence of METTL1/WDR4 (P57081 whole entry partner, species assumed): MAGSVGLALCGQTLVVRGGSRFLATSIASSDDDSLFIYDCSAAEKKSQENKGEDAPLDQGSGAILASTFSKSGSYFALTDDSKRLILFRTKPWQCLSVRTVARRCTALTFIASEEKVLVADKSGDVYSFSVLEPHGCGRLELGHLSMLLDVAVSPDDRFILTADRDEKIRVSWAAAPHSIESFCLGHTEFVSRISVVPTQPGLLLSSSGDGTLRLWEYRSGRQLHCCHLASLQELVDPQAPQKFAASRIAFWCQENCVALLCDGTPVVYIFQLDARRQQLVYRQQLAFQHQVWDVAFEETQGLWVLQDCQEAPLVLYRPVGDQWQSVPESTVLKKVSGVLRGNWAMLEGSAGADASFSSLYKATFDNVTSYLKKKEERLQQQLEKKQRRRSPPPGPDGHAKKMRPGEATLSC
Procedure, shortened: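 Radiometric methyltransfer by METTL1/WDR4 (6.25 nM f.c., 5 min preincubation) at ambient temperature in HEPES pH 7.5, KCl, MgCl2, DTT; started with 25 nM 3′-biotinylated RNA and 60 nM 3H-SAM, run 20 min, quenched with 15 μM cold SAM. Product captured on streptavidin flashplates (2 h, 25° C), counted by scintillation.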

[4] = METTL3 biochemical assay, read-out: METTL3 IC50
[5] = PRMT5 biochemical assay, read-out: PRMT5 IC50
[6] = read-out: METTL1 IC50; METTL1 biochemical assay
[7] = METTL1 biochemical assay; read-out: METTL1 IC50
[8] = read-out: PRMT5 IC50, PRMT5 biochemical assay
[9] = read-out: METTL3 IC50, METTL3 biochemical assay

Compound | IC50 (MOLM-13 cells [1]) [nM] | IC50 ([2]; MOLM-13, read-out: m^6A IC50) [nM] | IC50 (MOLM-13 cells [3]; MOLM-13, 96 h) [nM] | IC50 (METTL3/METTL14; [4]) [nM] | IC50 (PRMT5-MEP50; [5]) [nM] | IC50 (METTL1/WDR4; [6]) [nM] | IC50 (PRMT5-MEP50) [nM] | IC50 (METTL3/METTL14) [nM] | IC50 (METTL1/WDR4; [7]) [nM] | IC50 (MOLM-13 cells [3]) [nM] | IC50 (PRMT5-MEP50; [8]) [nM] | IC50 (METTL3/METTL14; [9]) [nM] | IC50 ([2]; MOLM-13, m6A cellular assay, read-out: m^6A IC50) [nM]
Nc1ncnc2c1c([C@@H]1CCCO1)cn2[C@@H]1O[C@H](COc2ccc3ccc(N4CCC4)nc3c2)[C@@H](O)[C@@H]1F [I-158] | 1000 to 10000 | < 1000 | < 1000 | < 10 |  |  |  |  |  |  |  |  | 
CNc1ccc2ccc(CC[C@H]3C[C@@H](n4cc(C5CCCC5)c5c(N)ncnc54)[C@H](O)[C@@H]3O)cc2n1 [I-55] | 1000 to 10000 | 1000 to 10000 | < 1000 | < 10 | < 10 | > 1000 |  |  |  |  |  |  | 
Nc1ncnc2c1ccn2[C@@H]1O[C@H](COc2ccc3ccc(N4CCCC4)nc3c2)[C@@H](O)[C@H]1O [I-75] | > 10000 | 1000 to 10000 |  | 10 to 100 | 10 to 100 | > 1000 |  |  |  |  |  |  | 
CCc1cc(NC)c2ccc(OC[C@H]3O[C@@H](n4cc(-c5ccn(C)n5)c5c(N)ncnc54)[C@@H](F)[C@@H]3O)cc2n1 [I-232] | > 10000 | > 10000 |  |  |  |  | 100 to 1000 | < 10 | > 1000 |  |  |  | 
Cn1ccc(-c2cn([C@@H]3C[C@H](CCc4ccc5ccc(N6CCC6)nc5c4)[C@@H](O)C3)c3ncnc(N)c23)n1 [I-205] |  | 1000 to 10000 |  |  |  |  | > 1000 | < 10 |  | < 1000 |  |  | 
CNc1ccc2ccc(OC[C@H]3O[C@@H](n4cc(-c5ccn(C)n5)c5c(N)ncnc54)[C@H](O)[C@@H]3O)cc2n1 [I-6] |  | < 1000 |  |  |  |  |  |  | > 1000 |  | < 10 | < 10 | 
Cc1ccn(-c2cn([C@@H]3O[C@H](COc4ccc5ccc(N6CCC6)nc5c4)[C@@H](O)[C@@H]3F)c3ncnc(N)c23)n1 [I-218] |  | 1000 to 10000 |  |  |  |  | > 1000 | < 10 |  | 1000 to 10000 |  |  | 
Cn1ccc(-c2cn([C@H]3C[C@H](O)[C@@H](COc4ccc5ccc(N6CCC6)nc5c4)O3)c3ncnc(N)c23)n1 [I-164] | 1000 to 10000 | < 1000 |  |  |  |  | > 1000 | < 10 |  | < 1000 |  |  | 
CNc1ccc2ccc(OC[C@H]3O[C@@H](n4cc(-c5ncco5)c5c(N)ncnc54)[C@@H](F)[C@@H]3O)cc2n1 [I-150] | < 1000 | < 1000 |  |  |  |  |  |  |  | < 1000 | 10 to 100 | < 10 | 
Nc1ncnc2c1c(-n1cccn1)cn2[C@H]1C[C@H](O)[C@@H](COc2ccc3ccc(N4CCC4)nc3c2)O1 [I-170] | 1000 to 10000 | < 1000 |  |  |  |  | > 1000 | < 10 |  | 1000 to 10000 |  |  | 
Cn1ccc(-c2cn([C@@H]3C[C@H](COc4ccc5ccc(N6CCC6)nc5c4)[C@@H](O)C3)c3ncnc(N)c23)n1 [I-169, (1S,2R,4R)-4-[4-amino-5-(1-methyl-1H-pyrazol-3-yl)-7H-pyrrolo[2,3-d]pyrimidin-7-yl]-2-({[2-(azetidin-1-yl)quinolin-7-yl]oxy}methyl)cyclopentan-1-ol] |  | 1000 to 10000 |  |  |  |  | > 1000 | < 10 |  | 1000 to 10000 |  |  | 
CCNc1ccc2ccc(OC[C@H]3O[C@@H](n4cc(C5CCCC5)c5c(N)ncnc54)[C@H](O)[C@@H]3O)cc2n1 [I-8] |  | < 1000 |  | < 10 | < 10 | > 1000 |  |  |  |  |  |  | 
CNc1ccc2ccc(OC[C@H]3O[C@@H](n4cc([C@H]5CCCO5)c5c(N)ncnc54)[C@@H](F)[C@@H]3O)cc2n1 [I-151] | 1000 to 10000 | 1000 to 10000 | < 1000 | < 10 | 100 to 1000 |  |  |  |  |  |  |  | 
Cn1ccc(-c2cn([C@@H]3O[C@H](COc4ccc5ccc(N6CC(O)C6)nc5c4)[C@@H](O)[C@@H]3F)c3ncnc(N)c23)n1 [I-171] | 1000 to 10000 | 1000 to 10000 |  |  |  |  | > 1000 | < 10 |  | 1000 to 10000 |  |  | 
Cn1ccc(-c2cn([C@H]3C[C@H](O)[C@@H](COc4ccc5ccc(NC6CC6)nc5c4)O3)c3ncnc(N)c23)n1 [I-179] | 1000 to 10000 | 1000 to 10000 |  |  |  |  | 100 to 1000 | < 10 |  | < 1000 |  |  | 
CNc1ccc2ccc(OC[C@H]3O[C@@H](n4cc([C@@H]5CCCO5)c5c(N)ncnc54)[C@@H](F)[C@@H]3O)cc2n1 [I-152] | 1000 to 10000 | < 1000 | < 1000 | < 10 | > 1000 |  |  |  |  |  |  |  | 
Nc1ncnc2c1c(-n1cccn1)cn2[C@@H]1O[C@H](COc2ccc3ccc(N4CCC4)nc3c2)[C@@H](O)[C@@H]1F [I-222] | < 1000 | < 1000 |  |  |  |  | > 1000 | < 10 |  | < 1000 |  |  | 
CCNc1ccc2ccc(OC[C@H]3O[C@@H](n4ccc5c(N)ncnc54)[C@@H](F)[C@@H]3O)cc2n1 [I-5] |  |  |  | < 10 | 10 to 100 |  |  |  | > 1000 |  |  |  | 1000 to 10000
Cn1ccc(-c2cn([C@@H]3O[C@H](COc4ccc5ccc(NC6CCC6)nc5c4)[C@@H](O)[C@@H]3F)c3ncnc(N)c23)n1 [I-183] | < 1000 | < 1000 |  |  |  |  | > 1000 | < 10 |  | < 1000 |  |  | 
CNc1ccc2ccc(OC[C@H]3O[C@@H](n4cc(-c5ccccn5)c5c(N)ncnc54)[C@@H](F)[C@@H]3O)cc2n1 [I-9] |  | 1000 to 10000 |  |  |  |  |  |  | > 1000 |  | 10 to 100 | < 10 | 
Cc1coc(-c2cn([C@@H]3O[C@H](COc4ccc5ccc(N6CCC6)nc5c4)[C@@H](O)[C@@H]3F)c3ncnc(N)c23)n1 [I-220] | 1000 to 10000 | < 1000 |  |  |  |  | > 1000 | < 10 |  | < 1000 |  |  | 
